{"source": "patent US7164023B2", "about": "“Benzoquinolizine-2-carboxylic acid arginine salt tetrahydrate” (priority 2003, dated 2007)", "key": {"[1]": {"assay": "Temperature/relative humidity-related stability (validated HPLC assay, XRPD)", "type": "physicochemical", "description": "3 Sample batches of the compound were stored under the conditions of the study as stated in the table below. The assay was done by a validated HPLC method."}, "[2]": {"settings": "in vivo; cited from earlier work"}, "[3]": {"system": "broad spectrum of microorganisms including antibiotic-resistant strains of Staphylococcus aureus, more particularly glycopeptide-resistant staphylococci", "settings": "incl. antibiotic-resistant S. aureus; cited from earlier work"}, "[4]": {"assay": "Conversion of monohydrate to tetrahydrate under ambient conditions, by XRPD", "type": "physicochemical", "settings": "ambient temperature (35° C.) and relative humidity (60%)", "description": "X-ray diffraction analyses (40 kv x 40 mA Rigaku D/max 2200) were performed under the conditions listed below: • Scan speed 5°/min or 20°/min • Sampling time 7 min or 2 min • Scan mode: continuous • 2θ/θ reflection • Cu target (Ni filter)"}}, "note": "Where a name gives a salt, the structure may show the parent alone."}
{"compound": "C[C@H]1CCc2c(N3CCC(O)CC3)c(F)cc3c(=O)c(C(=O)O)cn1c23", "note": "[S-(−)-9-fluoro-6,7-dihydro-8-(4-hydroxypiperidin-1-yl)-5-methyl-1-oxo-1H,5H-benzo[i,j]quinolizine-2-carboxylic acid L-arginine salt tetrahydrate]", "values": [{"measurement": "HPLC assay on storage", "setting": "[1]; 25° C./60% relative humidity, 3 months", "result": 99.22, "unit": "%"}, {"measurement": "HPLC assay on storage", "setting": "[1]; 25° C./60% relative humidity, Initial", "result": 99.31, "unit": "%"}, {"measurement": "HPLC assay on storage", "setting": "[1]; 40° C./75% relative humidity, 1 month", "result": 99.30, "unit": "%"}, {"measurement": "HPLC assay on storage", "setting": "[1]; 40° C./75% relative humidity, 2 months", "result": 99.25, "unit": "%"}, {"measurement": "HPLC assay on storage", "setting": "[1]; 40° C./75% relative humidity, 3 months", "result": 99.27, "unit": "%"}, {"measurement": "HPLC assay on storage", "setting": "[1]; 40° C./75% relative humidity, Initial", "result": 99.31, "unit": "%"}, {"measurement": "Crystallinity on storage as seen by XRPD spectra", "setting": "[1]; storage conditions of the stability study", "result": "underwent no changes"}]}
{"compound": "C[C@H]1CCc2c(N3CCC(O)CC3)c(F)cc3c(=O)c(C(=O)O)cn1c23.N=C(N)NCCC[C@H](N)C(=O)O", "note": "[S-(−)-9-fluoro-6,7-dihydro-8-(4-hydroxypiperidin-1-yl)-5-methyl-1-oxo-1H,5H-benzo[i,j]quinolizine-2-carboxylic acid L-arginine salt]", "values": [{"measurement": "Overall tolerability", "setting": "[2]", "result": "excellent overall tolerability"}, {"measurement": "Efficacy against microorganisms in mammals", "setting": "[3]", "result": "effective against a broad spectrum of microorganisms"}]}
{"compound": "C[C@H]1CCc2c(N3CCC(O)CC3)c(F)cc3c(=O)c(C(=O)O)cn1c23.N=C(N)NCCC[C@H](N)C(=O)O", "note": "[monohydrate, S-(−)-9-fluoro-6,7-dihydro-8-(4-hydroxypiperidin-1-yl)-5-methyl-1-oxo-1H,5H-benzo[i,j]quinolizine-2-carboxylic acid L-arginine salt]", "values": [{"measurement": "Physical stability / moisture absorption", "setting": "[4]", "result": "highly unstable and rapidly absorbs moisture"}, {"measurement": "Time until XRPD spectra change towards tetrahydrate", "setting": "[4]", "result": "≤ 20", "unit": "min"}]}
